Data reported in publication PMC12280126, “Potent β-lactam-based tyrosyl-DNA phosphodiesterase 1 inhibitors identified by a virtual screen” (Scientific Reports, 2025).
Where “and” joins values, the source holds several entries; their conditions need not be identical. Identical values can stand only once. Counter-ions that a name gives are not always drawn. Like-named read-outs stand apart in the source and are kept apart here.

Experiments:
recombinant TDP1 = molecular target: T1, recombinant TDP1 (Homo sapiens, UniProt Q9NUW8); test: in vitro gel-based fluorescence TDP1 catalytic assay; assay type: biochemical; conditions: 15 min, room temperature
T1 construct: incubated with 40 pM full-length recombinant TDP1 or TDP1 (148–608)
Procedure: We subjected select virtual screen hits to evaluation of TDP1 inhibitory potencies using in vitro gel-based fluorescence TDP1 catalytic assays (Fig. 2). […] To further explore this class of compounds, we purchased from TargetMol a library of approximately 90 β-lactams as 10 mM solutions in DMSO. […] We examined TDP1 inhibitory potencies of the compounds using the in vitro gel-based fluorescence assays as previously described[21]–[24]. Briefly, a 5’-Cy5-labeled DNA substrate (N14Y, 5’-Cy5-[…]-pY-3’, 1 nM) was incubated in TDP1 reaction buffer with recombinant TDP1 or truncated TDP1(148–608) (40 pM) in the absence or presence of inhibitors for 15 min at room temperature. […] The TDP1 inhibition IC50 values were calculated based on gel images of the cleavage product (N14P, 5’-Cy5-[…]-p-3’) (Fig. 3A and Table S2).
(§1) The inhibition of TDP1 and TDP2 were conducted according to gel-based methods as previously described[21]–[24],[45]. Briefly, 1 nM of the DNA substrate (N14Y, 5´Cy5-[…]-pY-3´) was incubated with 40 pM full-length recombinant TDP1 or TDP1 (148–608) in the absence or presence of inhibitors for 15 min at room temperature in TDP1 reaction buffer (50 mM Tris-HCl, pH 7.5, 80 mM KCl, 2 mM EDTA, 1 mM DTT, 40 µg/mL BSA and 0.01% Tween 20). The inhibition of TDP2 was also conducted by using similar conditions. […] The reactions of both TDP1 and TDP2 were stopped by adding an equal volume of gel loading buffer (99.5% (v/v) formamide, 5 mM EDTA). The samples were then subjected to a 20% denaturing PAGE gel followed by gel scanning using a Typhoon FLA 9500 scanner (GE Healthcare). The IC50 values of the TDP1 inhibitors were calculated by comparing the percentage of the cleavage product (N14P, 5´Cy5-[…]-p-3´) produced to that in the DMSO control. The IC50 values of the TDP2 inhibitors were calculated by comparing the percentage of the cleavage product (PN18, 5’-p-[…]-Cy5-3’) produced to that in the DMSO control.

recombinant TDP2 = molecular target: T2, recombinant TDP2 (Homo sapiens, UniProt O95551); test: in vitro gel-based fluorescence TDP2 assay (counterscreen); assay type: biochemical; conditions: for IC50: 15 min, RT
T2 sequence (O95551 1-362): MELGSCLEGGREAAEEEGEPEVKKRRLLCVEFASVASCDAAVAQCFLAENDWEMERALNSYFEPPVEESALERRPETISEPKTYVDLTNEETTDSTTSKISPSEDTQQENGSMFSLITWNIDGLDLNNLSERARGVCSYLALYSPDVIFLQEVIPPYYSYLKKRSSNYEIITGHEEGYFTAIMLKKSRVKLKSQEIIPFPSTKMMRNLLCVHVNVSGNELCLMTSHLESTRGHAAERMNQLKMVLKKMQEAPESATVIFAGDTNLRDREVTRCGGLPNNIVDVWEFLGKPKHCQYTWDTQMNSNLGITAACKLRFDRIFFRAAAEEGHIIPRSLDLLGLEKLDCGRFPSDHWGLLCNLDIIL
Procedure: as §1

[1] = 40 pM recombinant TDP1, 1 nM N14Y DNA substrate, read-out: TDP1 IC50
[2] = 40 pM recombinant TDP2, 1 nM YN18 DNA substrate, read-out: TDP2 IC50
[3] = TDP1 IC50, 40 pM recombinant TDP1, 1 nM N14Y DNA substrate

T1 sequence (Q9NUW8 whole entry): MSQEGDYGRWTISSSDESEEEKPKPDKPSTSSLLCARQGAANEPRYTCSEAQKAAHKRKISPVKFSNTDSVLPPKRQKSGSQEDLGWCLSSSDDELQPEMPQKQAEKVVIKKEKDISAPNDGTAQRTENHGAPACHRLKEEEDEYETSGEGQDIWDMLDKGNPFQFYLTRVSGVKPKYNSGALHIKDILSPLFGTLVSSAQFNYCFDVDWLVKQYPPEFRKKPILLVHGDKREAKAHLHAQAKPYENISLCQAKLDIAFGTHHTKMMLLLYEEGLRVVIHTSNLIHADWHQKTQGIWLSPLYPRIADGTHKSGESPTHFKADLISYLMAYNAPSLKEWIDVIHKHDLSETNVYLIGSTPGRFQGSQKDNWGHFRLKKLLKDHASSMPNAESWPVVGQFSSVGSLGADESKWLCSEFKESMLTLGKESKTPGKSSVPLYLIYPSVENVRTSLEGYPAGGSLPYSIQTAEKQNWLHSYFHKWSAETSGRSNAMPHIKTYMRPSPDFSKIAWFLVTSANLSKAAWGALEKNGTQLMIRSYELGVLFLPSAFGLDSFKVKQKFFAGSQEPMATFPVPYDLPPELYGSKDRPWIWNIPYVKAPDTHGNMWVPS

Compound | IC50 (recombinant TDP1; [1]) | IC50 (recombinant TDP2; [2]) [µM] | other results
CC(=O)OCC1=C(C(=O)O)N2C(=O)[C@@H](NC(=O)CCC[C@@H](N)C(=O)O)[C@H]2SC1 [11-Zn, Cephalosporin C Zinc salt] |  |  | IC50 (recombinant TDP1; read-out: TDP1 IC50, 40 pM recombinant TDP1, 1 nM N14Y DNA substrate): 5.3 µM; IC50 (recombinant TDP2; read-out: TDP2 IC50, 40 pM recombinant TDP2, 1 nM YN18 DNA substrate): 89.1 µM
CCN1CCN(C(=O)N[C@@H](C(=O)N[C@@H]2C(=O)N3[C@@H]2SC(C)(C)[C@@H]3C(=O)O)c2ccccc2)C(=O)C1=O [LA2, piperacillin] | 28 µM and < 100 µM | 224 ± 26 | 
CO/N=C(\C(=O)N[C@@H]1C(=O)N2C(C(=O)O)=C(COC(C)=O)CS[C@H]12)c1csc(N)n1 [LA9, Cefotaxime] |  | 81.7 ± 5.2 | 
CC(=O)OCC1=C(C(=O)O)N2C(=O)[C@@H](NC(=O)CCC[C@@H](N)C(=O)O)[C@H]2SC1 [LB2, Cephalosporin C zinc salt] |  |  | IC50 (recombinant TDP1; [3]): 5.54 µM and < 100 µM and 5.5 µM; IC50 (recombinant TDP2; TDP2 IC50, 40 pM recombinant TDP2, 1 nM YN18 DNA substrate): 38.3 µM; greater potency against TDP1 than against TDP2 (recombinant TDP2; ratio of gel-based IC50 values): approximately 7 fold
CC1(C)[C@H](C(=O)O)N2C(=O)C[C@H]2S1(=O)=O [LB6, Sulbactam sodium] | 84.5 µM and < 100 µM and 85 µM | 201 | 
CC1(C)S[C@@H]2[C@H](NC(=O)[C@H](N)c3ccccc3)C(=O)N2[C@H]1C(=O)O [LB9, Ampicillin sodium] | 10.3 µM and < 100 µM and 10 µM | 2.49 | greater potency against TDP2 than TDP1 (recombinant TDP2; ratio of gel-based IC50 values): 4 fold
CC1(C)S[C@@H]2[C@H](NC(=O)[C@H](N)c3ccc(O)cc3)C(=O)N2[C@H]1C(=O)O [LB11, Amoxicillin Sodium] |  | 99 ± 2.15 | 
CON=C(C(=O)NC1C(=O)N2C(C(=O)O)=C(CSC(=O)c3ccco3)CSC12)c1csc(N)n1 (centres unmarked) [LC2, Ceftiofur hydrochloride] | > 1000 µM | 80.9 ± 13.2 | 
CC1(C)S[C@@H]2[C@H](NC(=O)Cc3ccccc3)C(=O)N2[C@H]1C(=O)O [LC5, Benzylpenicillin potassium] | > 1000 µM | 26.1 ± 3.35 | 
Cc1onc(-c2c(F)cccc2Cl)c1C(=O)N[C@@H]1C(=O)N2[C@@H]1SC(C)(C)[C@@H]2C(=O)O [LC11, Flucloxacillin sodium] |  | 36 ± 1.35 | 
CC1(C)S[C@@H]2[C@H](NC(=O)[C@H](N)c3ccccc3)C(=O)N2[C@H]1C(=O)O [LD1, Ampicillin Trihydrate] | 77.3 µM and < 100 µM and 77 µM | > 1000 | 
CC1(C)S[C@@H]2[C@H](NC(=O)Cc3ccccc3)C(=O)N2[C@H]1C(=O)O [LD8, Procaine penicillin G] | 84.8 µM and < 100 µM and 85 µM | 77.4 | 
CO/N=C(\C(=O)N[C@@H]1C(=O)N2C(C(=O)O)=CCS[C@H]12)c1csc(N)n1 [LD9, Ceftizoxime] | 10.8 µM and < 100 µM and 11 µM | 37.6 ± 7.4 | 
COc1cccc2c1cc1c3c(cc4c(c32)OCO4)C(=O)N1 [LE2, Aristololactam I] | 80.6 µM and 81 µM | 70.1 | IC50 (recombinant TDP1; [3]): < 100 µM
O=C1[C@H](CC[C@H](O)c2ccc(F)cc2)[C@@H](c2ccc(O)cc2)N1c1ccc(F)cc1 [LE9, Ezetimibe] | 27.5 µM and < 100 µM and 27 µM | 52.6 | 
CC1(C)S[C@@H]2[C@H](NC(=O)[C@H](NC(=O)N3CCNC3=O)c3ccccc3)C(=O)N2[C@H]1C(=O)O [LF4, Azlocillin sodium] | > 1000 µM |  | 
CCOc1ccc2ccccc2c1C(=O)N[C@@H]1C(=O)N2[C@@H]1SC(C)(C)[C@@H]2C(=O)O [LF5, nafcillin sodium] | > 1000 µM |  | 
CC(C)(O/N=C(\C(=O)N[C@@H]1C(=O)N2C(C(=O)[O-])=C(C[n+]3ccccc3)CS[C@H]12)c1csc(N)n1)C(=O)O [LF6, Ceftazidime] | 5.8 µM and < 100 µM | 18.9 ± 2.2 | 
CC1(Cn2ccnn2)C(C(=O)O)N2C(=O)CC2S1(=O)=O (centres unmarked) [LF8, Tazobactam acid] | 73.8 µM and < 100 µM and 74 µM | 45.5 | 
O=C(O)C1=C(CSc2nnnn2CS(=O)(=O)O)CS[C@@H]2[C@H](NC(=O)[C@H](O)c3ccccc3)C(=O)N12 [LF9, Cefonicid sodium] | > 1000 µM |  | 

Compound | IC50 (recombinant TDP1; [1]) | IC50 (recombinant TDP2; [2]) [µM] | other results
CO/N=C(\C(=O)N[C@@H]1C(=O)N2C(C(=O)OC(C)OC(C)=O)=C(COC(N)=O)CS[C@H]12)c1ccco1 (some centres unmarked) [LF10, Cepazine] | > 1000 µM |  | 
CO/N=C(\C(=O)N[C@@H]1C(=O)N2C(C(=O)O)=C(COC(N)=O)CS[C@H]12)c1ccco1 [LF11, Cefuroxime sodium] | 111 µM |  | 
CO/N=C(\C(=O)N[C@@H]1C(=O)N2C(C(=O)O)=C(CSC(=O)c3ccco3)CS[C@H]12)c1csc(N)n1 [LG1, Sodium ceftiofur] | > 1000 µM |  | 
CO/N=C(\C(=O)N[C@@H]1C(=O)N2C(C(=O)O)=C(CSc3nc(=O)c(=O)[nH]n3C)CS[C@H]12)c1csc(N)n1 [LG2, Ceftriaxone sodium] | > 1000 µM |  | 
CCN1CCN(C(=O)N[C@@H](C(=O)N[C@@H]2C(=O)N3[C@@H]2SC(C)(C)[C@@H]3C(=O)O)c2ccccc2)C(=O)C1=O [LG3, Piperacillin sodium salt] | > 1000 µM |  | 
CO/N=C(\C(=O)N[C@@H]1C(=O)N2C(C(=O)O)=C(CSc3nnnn3C)CS[C@H]12)c1csc(N)n1 [LG4, Cefmenoxime hydrochloride] | > 1000 µM |  | 
CC1(C)S[C@@H]2[C@H](NC(=O)C(C(=O)O)c3ccccc3)C(=O)N2[C@H]1C(=O)O (some centres unmarked) [LG5, Carbenicillin disodium] | > 1000 µM |  | 
CC(=O)OCC1=C(C(=O)O)N2C(=O)[C@@H](NC(=O)Cc3cccs3)[C@H]2SC1 [LG7, Cephalothin sodium] |  | 35.2 | 
C/C=C/C1=C(C(=O)O)N2C(=O)[C@@H](NC(=O)[C@H](N)c3ccc(O)cc3)[C@H]2SC1 [LG8, Cefprozil hydrate] | > 1000 µM |  | 
Cc1cc(O)c(C(=O)N[C@@H](C(=O)N[C@@H]2C(=O)N3C(C(=O)O)=C(CSc4nnnn4C)CS[C@H]23)c2ccc(O)cc2)cn1 [LH1, Cefpiramide acid] | > 1000 µM |  | 
Cc1onc(-c2ccccc2Cl)c1C(=O)N[C@@H]1C(=O)N2[C@@H]1SC(C)(C)[C@@H]2C(=O)O [LH2, Cloxacillin sodium monohydrate] | > 1000 µM |  | 
C[C@H]1[C@H](NC(=O)/C(=N\OC(C)(C)C(=O)O)c2csc(N)n2)C(=O)N1S(=O)(=O)O [LH3, Aztreonam] | 620 ± 61 µM |  | 
Cc1onc(-c2c(Cl)cccc2Cl)c1C(=O)N[C@@H]1C(=O)N2[C@@H]1SC(C)(C)[C@@H]2C(=O)O [LH7, Dicloxacillin sodium monohydrate] | > 1000 µM |  | 
Cc1onc(-c2ccccc2)c1C(=O)NC1C(=O)N2[C@@H]1SC(C)(C)[C@@H]2C(=O)O (some centres unmarked) [LH8, Oxacillin sodium] | > 1000 µM |  | 
CC1(C)S[C@@H]2[C@H](NC(=O)Cc3ccccc3)C(=O)N2[C@H]1C(=O)O [LH9, Penicillin G sodium salt] | > 1000 µM |  | 
Cc1nnc(SCC2=C(C(=O)O)N3C(=O)[C@@H](NC(=O)Cn4cnnn4)[C@H]3SC2)s1 [LH10, Cefazolin sodium salt] | 530 µM |  | 
CC1=C(C(=O)O)N2C(=O)[C@@H](NC(=O)[C@H](N)c3ccccc3)[C@H]2SC1 [LH11, Cephalexin] | > 1000 µM |  | 
Nc1nc2c(c(=O)[nH]1)N=C(CNc1ccc(C(=O)N[C@@H](CCC(=O)O)C(=O)O)cc1)CN2 [compound 10, dihydrofolic acid dihydrate] | 60.1 µM and 60 µM |  | 
Cefotiam Hexetil Hydrochloride [LC9] | > 1000 µM |  | 
